# Measured values published in US20140044779A1, “Liquid Carrier for Oral Delivery of a Pharmacologically Active Agent” (LIPIDOR AB, priority 2011, published 2014).
# Assay: Storage stability of dispersions of solid powderous agents in vehicles
# Type: physicochemical
# Conditions: as little as
# Text: Depending on the chemical and physical nature of the solid and its particle size, a minimum amount of the solid is required to form the stable suspension of the invention. For a given substance of given physical and chemical nature as well of particle size, this minimum amount can be easily determined by experimentation, which is within the reach of a person skilled in the art. With some substances, such as hydrocortisone, stable suspensions are obtained by incorporating as little as 3% by weight of the substance into the fluid carrier. A preferred average particle size (with 50% or more of the particles being below average) is one of less than 550 μm or 250 μm, in particular of less than 100 μm or 20 μm, most preferred of less than 5 μm or 2 μm. The stabilizing effect of the particulate solid of the invention can also be obtained by a mixture of particulate substances, such as a particulate pharmacologically or cosmetically active agent, for instance hydrocortisone, and a particulate pharmaceutically or cosmetically acceptable excipient, such as microcrystalline cellulose. The powderous agents used are practically insoluble in the vehicles.
smiles,measurement,value
"C[C@]12CCC(=O)C=C1CC[C@@H]1[C@@H]2[C@@H](O)C[C@@]2(C)[C@H]1CC[C@]2(O)C(=O)CO [hydrocortisone, Hydrocortisone]",amount of substance incorporated into the fluid carrier at which stable suspensions are obtained,3 % by weight
